Experimental data reported in patent US8956445B2, “High stability diionic liquid salts” (Sigma-Aldrich Co., priority 2004, dated 2015).
Read-outs that look alike come from different tables or passages of the source.

Columns and labels:
[1] = Refractive index (Abbe-3L refractometer); format: physicochemical; settings: 23° C.
Protocol: (§1) The densities of the ionic liquids or, more correctly, […] (used synonymously except as indicated otherwise explicitly or by context) was determined at 23° C. by placing 2.0 mL of the ionic liquid in a 2.0 mL volumetric tube and weighing by difference. The melting points of the ionic liquids were determined using a Perkin Elmer Pyris 1 Differential Scanning calorimeter (Boston, Mass.). Typical methods involved using a 10° C./min temperature ramp to determine and identify the first and second order thermal transitions. […] For solid compounds, the melting points were verified using a capillary melting point apparatus. Refractive index measurements were conducted at 23° C. using a Bausch & Lomb Abbe-3L refractometer.

[2] = Density (2.0 mL volumetric tube, weighing by difference); format: physicochemical; settings: 23° C.
Protocol: as §1

[3] = values taken from reference 31, cited from earlier work
[4] = Solvation interaction parameters by inverse gas-liquid chromatography (Abraham solvation model); format: physicochemical
Protocol: The preparation of the capillary columns for inverse gas-liquid chromatographic analysis was performed using a previously described procedure.^31 All capillary columns had efficiencies between 2100 to 2500 plates/meter. Characterization of the capillary columns and probe molecule descriptions are listed in supplemental information. Multiple linear regression analysis (MLRA) and statistical calculations were performed using the program Analyse-it (Microsoft, USA).
We have previously reported that the Abraham solvation model, a linear free energy approach that utilizes inverse gas-liquid chromatography to describe the solvation properties of a liquid, can be used to characterize room temperature ionic liquids.^31 Described by equation 1, the model provides the so-called “interaction parameters” (r, s, a, b, l) by using multiple linear regression analysis to fit the retention factor (k, determined chromatographically) to the solute descriptors (R2, π2^H, α2^H, β2^H, log L^16) for a wide variety of probe solute molecules. […] The solvation properties of four dicationic ionic liquids (see Table 4) were evaluated and the interaction parameters compared to those obtained for their traditional monocationic analogues 1-butyl-3-methylimidazolium and 1-butyl-1-methylpyrrolidinium ionic liquids.
Previously we characterized a large number of room temperature ionic liquids in terms of multiple solvation interactions using the solvation parameter model, shown in equation 3.^44 log k=c+rR2+sπ2^H+aα2^H+bβ2^H+l log L^16 [3] This approach utilizes inverse gas-liquid chromatography and allows the use of a large number of probe molecules to deconvolute solute retention in terms of the type and magnitude of individual solvation interactions. The solute descriptors (R2, π2^H, α2^H, β2^H, log L^16) from Equation 3 are obtained from the literature for many probe molecules containing a variety of functional groups.^45 The retention factor is determined chromatographically. The solute descriptors and retention factors are subjected to multiple linear regression analysis to obtain the interaction parameter coefficients (r, s, a, b, l), which ultimately characterize the stationary phase: r is the ability of the diionic liquid containing-stationary phase to interact with π and n electrons of the solute, s is a measure of the dipolarity/polarizability of the diionic liquid containing-stationary phase, a defines the diionic liquid containing-stationary phase hydrogen bond basicity, b is a measure of the hydrogen bond acidity, and/refers to the ability of the diionic liquid containing-stationary phase to separate adjacent members of a homologous series.^46
Test solutes used to determine interaction parameters and solvation thermodynamics were dissolved in dichloromethane. A Hewlett-Packard model 5890 gas chromatograph and a Hewlett-Packard 6890 series integrator were used for all separations. Split injection and flame ionization detection were utilized with injection and detection temperatures of 250° C. Helium was used as the carrier gas with a column inlet pressure of 3.1 psi and flow rate of 1.0 mL/min. Methane was used to determine the dead volume of the column. Multiple linear regression analysis and statistical calculations were performed using the program Analyze-it (Microsoft).

With “1-vinyl-3-dodecylimidazolium bis[(trifluoromethane)sulfonyl]imidate [dvim-NTf2]” the “Refractive Index” value [1] was 1.448 and the Density [2] was 1.23 g/mL.
In the case of “1-vinyl-3-hexylimidazolium bis[(trifluoromethane)sulfonyl]imidate [hvim-NTf2]”, the “Refractive Index” value [1] is reported as 1.443 and the Density [2] is reported as 1.36 g/mL.
For “1-vinyl-3-nonylimidazolium bis[(trifluoromethane)sulfonyl]imidate [nvim-NTf2]”, the “Refractive Index” value [1] was 1.445 and the Density [2] was 1.28 g/mL.
For `CCCC[N+]1(C)CCCC1.O=S(=O)([N-]S(=O)(=O)C(F)(F)F)C(F)(F)F` [BMPY—NTf2, 1-butyl-1-methylpyrrolidinium bis[(trifluoromethylsulfonyl)imide]], the “a (hydrogen bond basicity)” value ([3]; 40° C.) is listed as 2.08, the “b (hydrogen bond acidity)” value ([3]; 40° C.) is listed as 0.16 and the “c (interaction parameter table, constant)” value ([3]; 40° C.) is listed as −2.78. The “l (dispersion forces)” value ([3]; 40° C.) was 0.68, the “r (interaction via nonbonding and π-electrons)” value ([3]; 40° C.) was 0 and the “s (dipolarity/polarizability)” value ([3]; 40° C.) was 1.69. The “a (hydrogen bond basicity)” value ([3]; 70° C.) was 1.78, the “b (hydrogen bond acidity)” value ([3]; 70° C.) was 0 and the “c (interaction parameter table, constant)” value ([3]; 70° C.) was −2.80. For the same compound, the “l (dispersion forces)” value ([3]; 70° C.) was 0.56, the “r (interaction via nonbonding and π-electrons)” value ([3]; 70° C.) was 0 and the “s (dipolarity/polarizability)” value ([3]; 70° C.) was 1.53. For the same compound, the “a (hydrogen bond basicity)” value ([3]; 100° C.) was 1.55, the “b (hydrogen bond acidity)” value ([3]; 100° C.) was 0 and the “c (interaction parameter table, constant)” value ([3]; 100° C.) was −2.92. The “l (dispersion forces)” value ([3]; 100° C.) was 0.48, the “r (interaction via nonbonding and π-electrons)” value ([3]; 100° C.) was 0 and the “s (dipolarity/polarizability)” value ([3]; 100° C.) was 1.44.
For `Cc1n(C)cc[n+]1CCC[n+]1ccn(C)c1C.[Br-].[Br-]` [C3(m2im)2-Br, 1,3-di(2,3-dimethylimidaolium)propane di-bromide], the “Miscibility with Heptane” value was “Immiscible” and the “Miscibility with Water” value was “Miscible”.
With `Cc1n(C)cc[n+]1CCC[n+]1ccn(C)c1C.O=S(=O)([N-]S(=O)(=O)C(F)(F)F)C(F)(F)F.O=S(=O)([N-]S(=O)(=O)C(F)(F)F)C(F)(F)F` [C3(m2im)2-NTf2, 1,3-di(2,3-dimethylimidazolium)propane di-bis[(trifluoromethyl)sulfonyl]imidate] the “Miscibility with Heptane” value was “Immiscible” and the “Miscibility with Water” value was “Immiscible”.
In the case of `Cc1n(C)cc[n+]1CCC[n+]1ccn(C)c1C.F[P-](F)(F)(F)(F)F.F[P-](F)(F)(F)(F)F` [C3(m2im)2-PF6, 1,3-di(2,3-dimethylimidazolium)propane di-hexafluorophosphate], the “Miscibility with Heptane” value is reported as “Immiscible” and the “Miscibility with Water” value is reported as “Immiscible”.
For `C[N+]1(CCC[N+]2(C)CCCC2)CCCC1.O=S(=O)([N-]S(=O)(=O)C(F)(F)F)C(F)(F)F.O=S(=O)([N-]S(=O)(=O)C(F)(F)F)C(F)(F)F` [C3(mpy)2-NTf2, 1,3-di(methylpyrrolidinium)propane di-bis[(trifluoromethyl)sulfonyl]imidate], the “Miscibility with Heptane” value was “Immiscible” and the “Miscibility with Water” value was “Immiscible”.
In the case of `C[n+]1ccn(CCCCn2cc[n+](C)c2)c1.O=S(=O)([N-]S(=O)(=O)C(F)(F)F)C(F)(F)F.O=S(=O)([N-]S(=O)(=O)C(F)(F)F)C(F)(F)F` [C4(mim)2-NTf2], the “a (hydrogen bond basicity)” value ([4]; 40° C.) is reported as 2.11, the “b (hydrogen bond acidity)” value ([4]; 40° C.) is reported as 0.50 and the “c (interaction parameter table, constant)” value ([4]; 40° C.) is reported as −2.94. For the same compound, the “l (dispersion forces)” value ([4]; 40° C.) was 0.56, the “r (interaction via nonbonding and π-electrons)” value ([4]; 40° C.) was 0.25 and the “s (dipolarity/polarizability)” value ([4]; 40° C.) was 2.01. The “a (hydrogen bond basicity)” value ([4]; 70° C.) was 1.77, the “b (hydrogen bond acidity)” value ([4]; 70° C.) was 0.45 and the “c (interaction parameter table, constant)” value ([4]; 70° C.) was −2.91. The “l (dispersion forces)” value ([4]; 70° C.) was 0.44, the “r (interaction via nonbonding and π-electrons)” value ([4]; 70° C.) was 0.22 and the “s (dipolarity/polarizability)” value ([4]; 70° C.) was 1.78. For the same compound, the “a (hydrogen bond basicity)” value ([4]; 100° C.) was 1.57, the “b (hydrogen bond acidity)” value ([4]; 100° C.) was 0.33 and the “c (interaction parameter table, constant)” value ([4]; 100° C.) was −3.06. For the same compound, the “l (dispersion forces)” value ([4]; 100° C.) was 0.37, the “r (interaction via nonbonding and π-electrons)” value ([4]; 100° C.) was 0.20 and the “s (dipolarity/polarizability)” value ([4]; 100° C.) was 1.69.
With `C[n+]1ccn(CCCCCCn2cc[n+](C)c2)c1.F[B-](F)(F)F.F[B-](F)(F)F` [C6(mim)2-BF4, 1,6-di(3-methylimidazolium)hexane di-tetrafluoroborate] the “Miscibility with Heptane” value was “Immiscible” and the “Miscibility with Water” value was “Miscible”.
In the case of `C[n+]1ccn(CCCCCCn2cc[n+](C)c2)c1.F[P-](F)(F)(F)(F)F.F[P-](F)(F)(F)(F)F` [C6(mim)2-PF6, 1,6-di(3-methylimidazolium)hexane di-hexafluorophosphate], the “Miscibility with Heptane” value is reported as “Immiscible” and the “Miscibility with Water” value is reported as “Immiscible”.
In the case of `CCCC[N+]1(CCCCCCCCC[N+]2(CCCC)CCCC2)CCCC1.F[P-](F)(F)(F)(F)F.F[P-](F)(F)(F)(F)F` [C9(bpy)2-PF6, 1,9-di(butylpyrrolidinium)nonane di-hexafluorophosphate], the “Miscibility with Heptane” value is reported as “Immiscible” and the “Miscibility with Water” value is reported as “Immiscible”.
In the case of `Cc1n(C)cc[n+]1CCCCCCCCC[n+]1ccn(C)c1C.[Br-].[Br-]` [C9(m2im)2-Br, 1,9-di(2,3-dimethylimidazolium)nonane di-bromide], the “Miscibility with Heptane” value is reported as “Immiscible” and the “Miscibility with Water” value is reported as “Miscible”.
In the case of `Cc1n(C)cc[n+]1CCCCCCCCC[n+]1ccn(C)c1C.F[P-](F)(F)(F)(F)F.F[P-](F)(F)(F)(F)F` [C9(m2im)2-PF6, 1,9-di(2,3-dimethylimidazolium)nonane di-hexafluorophosphate], the “Miscibility with Heptane” value is reported as “Immiscible” and the “Miscibility with Water” value is reported as “Immiscible”.
In the case of `Cn1cc[n+](CCCCCCCCC[n+]2ccn(C)c2)c1.F[P-](F)(F)(F)(F)F.F[P-](F)(F)(F)(F)F` [C9(mim)2-PF6, 1,9-di(3-methylimidazolium)nonane di-hexafluorophosphate], the “Miscibility with Heptane” value is reported as “Immiscible” and the “Miscibility with Water” value is reported as “Immiscible”.
In the case of `C[N+]1(CCCCCCCCC[N+]2(C)CCCC2)CCCC1.F[P-](F)(F)(F)(F)F.F[P-](F)(F)(F)(F)F` [C9(mpy)2-PF6, 1,9-di(methylpyrrolidinium)nonane di-hexafluorophosphate], the “Miscibility with Heptane” value is reported as “Immiscible” and the “Miscibility with Water” value is reported as “Immiscible”.
In the case of `C=Cn1cc[n+](CCCCCCCCC[n+]2ccn(C=C)c2)c1.O=S(=O)([N-]S(=O)(=O)C(F)(F)F)C(F)(F)F.O=S(=O)([N-]S(=O)(=O)C(F)(F)F)C(F)(F)F` [C9(vim)2-NTf2], the “Refractive Index” value [1] is reported as 1.457 and the Density [2] is reported as 1.47 g/mL.
For `C=Cn1cc[n+](CCCCCCCCCCC[n+]2ccn(C=C)c2)c1.O=S(=O)([N-]S(=O)(=O)C(F)(F)F)C(F)(F)F.O=S(=O)([N-]S(=O)(=O)C(F)(F)F)C(F)(F)F` [C11(vim)2-NTf2], the “Refractive Index” value [1] was 1.457 and the Density [2] was 1.44 g/mL.
With `C=Cn1cc[n+](CCCCCCCCCCCC[n+]2ccn(C=C)c2)c1.O=S(=O)([N-]S(=O)(=O)C(F)(F)F)C(F)(F)F.O=S(=O)([N-]S(=O)(=O)C(F)(F)F)C(F)(F)F` [C12(vim)2-NTf2] the “Refractive Index” value [1] was 1.458 and the Density [2] was 1.42 g/mL.
